From patent US12042511B1, “Inhalation delivery methods and compositions for vitamin B12” (priority 2017, dated 2024)

How the values were obtained:
[1] = B12 blood levels after inhalation of methylcobalamin solution (vaporizer/electronic cigarette); assay type: in vivo, human
Method: A new method for vitamin B12 supplementation involves determining that a person has a disorder causing the person to have a reduced ability to process one or more forms of B-vitamins and convert them into a usable form in the body and administering methylcobalamin to the person in aerosol form or in water vapor, for inhalation. In some embodiments, the person is determined to have a MTHFR gene mutation. In some embodiments, the methylcobalamin is administered as part of a mixture also comprising vegetable glycerin and water. In some embodiments, the determined disorder includes anemia, pernicious anemia, and/or advanced age. In some embodiments, administering methylcobalamin involves administering at least 500 mcg of methylcobalamin in one day or in one week. For example, 500 mcg of methylcobalamin may be administered in a single daily or weekly dose. Depending on the concentration of the methylcobalamin in the solution used to administer the methylcobalamin, 500 mcg of methylcobalamin may be administered in 0.01 mL or more of solution. The concentration of methylcobalamin in solution for a vaporizer/electronic cigarette application in some embodiments is 1,000 mcg/mL or higher, in preferred embodiments 2,000 mcg/mL or higher. […]

[2] = bioavailability/absorption of methylcobalamin in inhalable form compared with other forms of B12; assay type: in vivo, human; details: persons with a methylenetetrahydrofolate reductase (MTHFR) genetic mutation
Method: When a person is determined to have MTHFR or another condition that causes the person to have a reduced ability to process B-vitamin supplements and convert them into a usable form in the body, the person may be administered methylcobalamin by inhalation for proper B12 supplementation.

C/C1=C2/[N-][C@H]([C@H](CC(N)=O)[C@@]2(C)CCC(=O)NC[C@@H](C)OP(=O)([O-])O[C@H]2[C@@H](O)[C@@H](n3cnc4cc(C)c(C)cc43)O[C@@H]2CO)[C@]2(C)N=C(/C(C)=C3N=C(/C=C4N=C1[C@@H](CCC(N)=O)C\4(C)C)[C@@H](CCC(N)=O)[C@]\3(C)CC(N)=O)[C@@H](CCC(N)=O)[C@]2(C)CC(N)=O.[CH3-].[Co+3] [methylcobalamin]
levels of B12 in a user's blood ([1]; lower concentrations (below 1,000 mcg/mL) of methylcobalamin in solution): no effect on the user's blood levels of B12
levels of B12 in a user's blood ([1]; methylcobalamin concentration in solution 1,000 mcg/mL or higher, vaporizer/electronic cigarette, immediately after treatment (within about 5 minutes) and persistently): substantially increasing levels of B12 in a user's blood
absorption relative to other forms of B12 [2]: more easily absorbed than other forms of B12
